# Data as given in article PMC9029529, “Distinct Mechanisms of Cytotoxicity in Novel Nitrogenous Heterocycles: Future Directions for a New Anti-Cancer Agent” (Molecules, 2022).
# Test system: MDA-MB-231 cells
# Assay: ApoTox-Glo triplex assay (caspase 3/7)
# Assay type: cell-based, human
# Conditions: MDA-MB-231, 24 h, various concentrations
# From the text: The ApoTox-Glo® triplex assay was utilized to further evaluate the effect of compound 9 on the MDA-MB-231 cancer cell viability, cytotoxicity, and apoptosis. This assay employs a luminogenic peptide substrate for caspase 3/7 to measure caspase activity, which is used as a marker for apoptosis within the cells. […] However, since this assay was time-dependent, the level of cytotoxicity (Figure 7B) determined, in this case, was not a true representative of the compound’s cytotoxic potential; it is reasonable to say that at the endpoint of apoptosis (Figure 7C), a heightened level of cytotoxicity would be observed.
# The Promega ApoTox-Glo® triplex assay was conducted as described by the manufacturer. Briefly, the cells were incubated at 37 °C for 12 h and then treated for 24 h with various concentrations of compound 9 [29, 30]. Next, 100 µL of the Viability and Cytotoxicity Reagent was added to each well and briefly mixed on an orbital shaker. Plates were incubated at 37 °C for 30 min, and the fluorescence was measured at the following two-wavelength sets—400Ex/505Em (Viability) and 485Ex/520 Em (Cytotoxicity)—using the Envision plate reader (Perkin Elmer). […] Finally, to determine the level of apoptosis, the luminescence associated with caspase 3/7 activation was measured using an Envision plate reader (Perkin Elmer).
smiles,measurement,value
COc1cccc(/C=C2\N=C(c3ccccc3)N(Nc3ccc([N+](=O)[O-])cc3[N+](=O)[O-])C2=O)c1 [Compound 9],caspase 3/7-mediated apoptosis,induced caspase 3-/7-mediated apoptosis in a dose-dependent manner
